Source: the supplement of paper PMC10307832

How the values were obtained:
Assay in all cases: relative viability (nuclei count vs DMSO), 5 days (fraction); higher = more cells survive
Ruxolitinib + AZD7762 = compound: N#CC[C@H](C1CCCC1)n1cc(-c2ncnc3[nH]ccc23)cn1 [Ruxolitinib] + NC(=O)Nc1cc(-c2cccc(F)c2)sc1C(=O)N[C@H]1CCCNC1 [AZD7762] (partner 0.2 µM)
Method in brief: (§1)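 Dosing by pin tool came one day after lung cancer cell lines were seeded in 1536-well plates, using either one drug or a fixed anchor-drug dose plus five library-drug doses (not always all listed) in √10 steps. After 5 days, nuclei were counted on 4× images. Relative viability is treated-well nuclei count divided by vehicle-well nuclei count, and values are medians of duplicate plates.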

Ruxolitinib + OSI-027 = compound: N#CC[C@H](C1CCCC1)n1cc(-c2ncnc3[nH]ccc23)cn1 [Ruxolitinib] + COc1cccc2cc(-c3nc([C@H]4CC[C@H](C(=O)O)CC4)n4ncnc(N)c34)[nH]c12 [OSI-027] (partner 0.5 µM)
Method in brief: as §1

Ruxolitinib + Pemetrexed = compound: N#CC[C@H](C1CCCC1)n1cc(-c2ncnc3[nH]ccc23)cn1 [Ruxolitinib] + Nc1nc2[nH]cc(CCc3ccc(C(=O)N[C@@H](CCC(=O)O)C(=O)O)cc3)c2c(=O)[nH]1 [Pemetrexed] (partner 0.2 µM)
Method in brief: as §1

Vismodegib + Linsitinib = compound: CS(=O)(=O)c1ccc(C(=O)Nc2ccc(Cl)c(-c3ccccn3)c2)c(Cl)c1 [Vismodegib] + C[C@]1(O)C[C@@H](c2nc(-c3ccc4ccc(-c5ccccc5)nc4c3)c3c(N)nccn32)C1 [Linsitinib] (partner 1 µM)
Method in brief: as §1

Row | Cell Line | relative viability (Ruxolitinib + AZD7762; first compound 0.08 µM) | relative viability (Ruxolitinib + AZD7762; first compound 0.253 µM) | relative viability (Ruxolitinib + AZD7762; first compound 0.8 µM) | relative viability (Ruxolitinib + AZD7762; first compound 2.53 µM) | relative viability (Ruxolitinib + AZD7762; first compound 8 µM) | relative viability (Ruxolitinib + OSI-027; first compound 0.08 µM) | relative viability (Ruxolitinib + OSI-027; first compound 0.253 µM) | relative viability (Ruxolitinib + OSI-027; first compound 0.8 µM) | relative viability (Ruxolitinib + OSI-027; first compound 2.53 µM) | relative viability (Ruxolitinib + OSI-027; first compound 8 µM) | relative viability (Ruxolitinib + Pemetrexed; first compound 0.08 µM) | relative viability (Ruxolitinib + Pemetrexed; first compound 0.253 µM) | relative viability (Ruxolitinib + Pemetrexed; first compound 0.8 µM) | relative viability (Ruxolitinib + Pemetrexed; first compound 2.53 µM) | relative viability (Ruxolitinib + Pemetrexed; first compound 8 µM) | relative viability (Vismodegib + Linsitinib; first compound 0.08 µM) | relative viability (Vismodegib + Linsitinib; first compound 0.253 µM) | relative viability (Vismodegib + Linsitinib; first compound 0.8 µM) | relative viability (Vismodegib + Linsitinib; first compound 2.53 µM) | relative viability (Vismodegib + Linsitinib; first compound 8 µM)
1 | LK-2 | 0.4 | 0.489 | 0.815 | 0.481 | 0.648 | 0.222 | 0.187 | 0.18 | 0.182 | 0.214 | 0.291 | 0.276 | 0.308 | 0.234 | 0.29 | 0.427 | 0.49 | 0.539 | 0.46 | 0.378
2 | BEN | 0.777 | 0.655 | 0.793 | 0.813 | 0.827 | 0.336 | 0.299 | 0.304 | 0.266 | 0.267 | 0.534 | 0.744 | 0.818 | 0.688 | 0.95 | 0.951 | 0.939 | 0.929 | 0.964 | 0.99
3 | NCI-H650 | 0.951 | 1.06 | 1.01 | 0.993 | 0.707 | – | 0.497 | 0.618 | 0.502 | 0.341 | 0.898 | 0.98 | 0.958 | 0.966 | 0.683 | 0.868 | 0.799 | 0.679 | 0.994 | 0.949
4 | EKVX | – | 0.77 | 0.848 | 0.799 | 0.698 | 0.661 | 0.641 | 0.486 | 0.632 | 0.733 | – | 0.403 | 0.41 | 0.402 | 0.237 | 0.949 | 1.04 | 0.929 | 0.894 | 0.989
5 | NCI-H1395 | 0.422 | 0.385 | 0.424 | 0.356 | 0.407 | 0.578 | 0.576 | 0.661 | 0.564 | 0.666 | 0.662 | 0.685 | 0.856 | 0.97 | 0.729 | 1.07 | 1.36 | 0.961 | 0.961 | 1.18
6 | NCI-H23 | 0.456 | 0.303 | 0.279 | 0.206 | 0.277 | 0.743 | 0.617 | 0.696 | 0.496 | 0.522 | 0.779 | 0.787 | 0.755 | 0.708 | 0.564 | 0.591 | 0.511 | 0.643 | 0.488 | 0.677
7 | LU99A | 0.336 | 0.402 | 0.394 | 0.406 | 0.477 | 0.339 | 0.305 | 0.298 | 0.295 | 0.268 | 0.171 | 0.179 | 0.178 | 0.186 | 0.195 | 0.521 | 0.507 | 0.508 | 0.464 | 0.621
8 | NCI-H1915 | 0.687 | 0.681 | 0.753 | 0.572 | 0.593 | 0.622 | 0.619 | 0.663 | 0.463 | 0.464 | 0.512 | 0.501 | 0.515 | 0.518 | 0.439 | 1.11 | 1.15 | 1.06 | 1.1 | 1.1
